Laboratory results: article PMC12717099, “Peptidoglycan recruitment by a penicillin binding protein” (Nature Communications, 2025)

What was measured:
[1] = test system: E. faecium D344SRF pCWR624 (PBP5 plasmid); experiment: MIC by broth microdilution, pCWR624; assay type: cell-based, Enterococcus faecium; conditions: strain pCWR624; 37 °C, 20 h; n=3
Experimental: (§1) The synthetic genes were purchased from GeneWiz (South Plainfield, NJ). The ribosome binding site sequence AGGAGG (Shine-Dalgarno), and a string of five A’s followed by the sequence […], that corresponds to the first 15 bp found in pbp5 from E. faecium C68 were added upstream of the START codon. The terminator sequence […] was added downstream of the STOP codon. BamHI restriction sites were added to the flanking 5′ and 3′ ends. The synthetic genes were inserted into the vector pCWR624Δpbp5. This vector was derived from pCWR624[10], in which the pbp5 gene from D366 was excised by digestion with BamHI followed by re-ligation of the vector, allowing subsequent insertion of modified synthetic pbp5s into the BamHI site downstream of ftsWEfm and psr from E. faecium C68[10]. The synthetic genes were inserted in a BamHI site located downstream of psr. The proper orientation was confirmed by PCR amplification using the forward primer OR_pbp5_FOR_1 (5′-[…]-3′) and the reverse primer OR_pbp5_REV_1 (5′-[…]-3′). Plasmids were sequence verified for the specific binding site mutations. The resulting constructions were electroporated into the natural pbp5(-) mutant E. faecium D344SRF with a selection on brain heart infusion agar (BHI) plates containing kanamycin (1500 µg/ml).
(§2) E. faecium strains were streaked fresh from −80 °C stored glycerol stocks onto brain heart infusion (BHI) agar plates and incubated for 18 h at 37 °C. Strains harboring the plasmid derivatives were grown under antibiotic pressure on agar plates containing kanamycin at 1500 µg/ml. A single colony was inoculated into BHI or BHI-kanamycin (1500 µg/ml) for overnight cultures (18 h).
MIC determination was performed using a standard broth microdilution technique in duplicate from independent cultures. Overnight cultures were inoculated into 3 ml of BHI or BHI-kanamycin (1500 µg/ml) broth in a dilution of 1:100 and incubated until an OD600 of ~0.5 was reached. Cultures were diluted 1:1000 and inoculated into the 96-well plates with the corresponding antibiotics to be tested. Plates were incubated at 37 °C for 20 h and read by eye. […]

[2] = test system: E. faecium D344SRF pCWR624Δpbp5_pbp5_V6; experiment: Disk diffusion assay, pbp5_V6; assay type: cell-based, Enterococcus faecium; conditions: strain pbp5_V6 (E284A_E291A_S294A_N295A); 37 °C, 24 h; n=3
Experimental: as §1, §2
(§3) Antibiotic disks used were manufactured by BD BBL^TM. Disk diffusion assays were performed according to the Clinical and Laboratory Standards Institute (CLSI) guidance. Overnight cultures were inoculated into 3 ml of BHI or BHI-kanamycin (1500 µg/ml) broth with a dilution of 1:100 and incubated until an OD600 of ~0.5 was reached. […] The plates were incubated at 37 °C and the zones of inhibition were measured after 24 h. […]

[3] = test system: E. faecium D344SRF, Wild Type; assay type: cell-based, Enterococcus faecium; conditions: strain Wild Type; disks Ampicillin 10 μg, Penicillin 10 U, Ceftriaxone 30 μg; BHI agar, 37 °C, 24 h; n=3
Experimental: as §2
Antibiotic disks used were manufactured by BD BBL^TM. Disk diffusion assays were performed according to the Clinical and Laboratory Standards Institute (CLSI) guidance. Overnight cultures were inoculated into 3 ml of BHI or BHI-kanamycin (1500 µg/ml) broth with a dilution of 1:100 and incubated until an OD600 of ~0.5 was reached. The OD600 was adjusted to 0.01 to get the inoculum suspension. […] The plates were incubated at 37 °C and the zones of inhibition were measured after 24 h. All experiments were conducted in triplicate.

[4] = test system: E. faecium D344SRF pCWR624Δpbp5 (empty plasmid); experiment: Disk diffusion assay, pCWR624Δpbp5; assay type: cell-based, Enterococcus faecium; conditions: strain pCWR624Δpbp5; 37 °C, 24 h; n=3
Experimental: as §1, §2, §3

[5] = test system: E. faecium D344SRF pCWR624Δpbp5_pbp5_V5; experiment: Disk diffusion assay, pbp5_V5; assay type: cell-based, Enterococcus faecium; conditions: strain pbp5_V5 (Q396A_E397A); 37 °C, 24 h; n=3
Experimental: as §1, §2, §3

[6] = test system: E. faecium D344SRF pCWR624Δpbp5_pbp5_V1; experiment: Disk diffusion assay, pbp5_V1; assay type: cell-based, Enterococcus faecium; conditions: strain pbp5_V1 (N523A); 37 °C, 24 h; n=3
Experimental: as §1, §2, §3

PBP2B = experiment: 1D 1H STD NMR of SP2 with PBP2B; assay type: binding, E. faecalis; conditions: for STD amplification factor, 2000: protein:peptide 1:100, 2 s saturation
From the text: Total saturation time for STD measurements was 2 s.
Overlapped peaks were completely excluded from the analysis.

Compound: CO/N=C(\C(=O)N[C@@H]1C(=O)N2C(C(=O)O)=C(CSc3nc(=O)c(=O)[nH]n3C)CS[C@H]12)c1csc(N)n1 [Ceftriaxone, ceftriaxone]
- MIC (µg/ml) [Range] [1]: > 3200 [3200->3200] µg/ml
- Zone Size (mm) [Range] [2]: 0 [0] mm
- Zone Size (mm) [Range] [3]: 20 [20-26] mm
- Zone Size (mm) [Range] [4]: 24 [22-28] mm
- Zone Size (mm) [Range] [5]: 0 [0] mm
- Zone Size (mm) [Range] [6]: 0 [0] mm

Compound: D-Lac-L-Ala-D-iGln-L-Lys(D-iAsn) [SP2]
- STD % to SP1 (PBP2B; 1H DLacβ): 24.9553%
- STD amplification factor as fraction of highest SP1:PBP5 value (PBP2B; 1H DLacβ): 0.2496
- STD amplification factor, 2000 (PBP2B; 1H DLacβ): 6.715
- STD % to SP1 (PBP2B; 1H DQ2β (first listed)): 52.517%
- STD amplification factor as fraction of highest SP1:PBP5 value (PBP2B; 1H DQ2β (first listed)): 0.5252
- STD amplification factor, 2000 (PBP2B; 1H DQ2β (first listed)): 14.1315
- STD % to SP1 (PBP2B; 1H DQ2β (second listed)): 59.0483%
- STD amplification factor as fraction of highest SP1:PBP5 value (PBP2B; 1H DQ2β (second listed)): 0.5905
- STD amplification factor, 2000 (PBP2B; 1H DQ2β (second listed)): 15.8889
- STD % to SP1 (PBP2B; 1H DQ2γ): 22.6012%
- STD amplification factor as fraction of highest SP1:PBP5 value (PBP2B; 1H DQ2γ): 0.226
- STD amplification factor, 2000 (PBP2B; 1H DQ2γ): 6.082
- STD % to SP1 (PBP2B; 1H K3α): 41.2007%
- STD amplification factor as fraction of highest SP1:PBP5 value (PBP2B; 1H K3α): 0.412
- STD amplification factor, 2000 (PBP2B; 1H K3α): 11.0865
- STD % to SP1 (PBP2B; 1H K3β): 85.7339%
- STD amplification factor as fraction of highest SP1:PBP5 value (PBP2B; 1H K3β): 0.8573
- STD amplification factor, 2000 (PBP2B; 1H K3β): 23.0696
- STD % to SP1 (PBP2B; 1H K3γ): 40.677%
- STD amplification factor as fraction of highest SP1:PBP5 value (PBP2B; 1H K3γ): 0.4068
- STD amplification factor, 2000 (PBP2B; 1H K3γ): 10.9455
- STD % to SP1 (PBP2B; 1H K3δ): 54.3796%
- STD amplification factor as fraction of highest SP1:PBP5 value (PBP2B; 1H K3δ): 0.5438
- STD amplification factor, 2000 (PBP2B; 1H K3δ): 14.6327
- STD % to SP1 (PBP2B; 1H K3ε): 13.0751%
- STD amplification factor as fraction of highest SP1:PBP5 value (PBP2B; 1H K3ε): 0.1308
- STD amplification factor, 2000 (PBP2B; 1H K3ε): 3.518
- STD % to SP1 (PBP2B; 1H LA1α): 44.8726%
- STD amplification factor as fraction of highest SP1:PBP5 value (PBP2B; 1H LA1α): 0.4487
- STD amplification factor, 2000 (PBP2B; 1H LA1α): 12.0745
- STD % to SP1 (PBP2B; 1H LA1β): 28.2398%
- STD amplification factor as fraction of highest SP1:PBP5 value (PBP2B; 1H LA1β): 0.2824
- STD amplification factor, 2000 (PBP2B; 1H LA1β): 7.599
- STD % to SP1 (PBP2B; 1H iNα,DQ2α): 20.0674%
- STD amplification factor as fraction of highest SP1:PBP5 value (PBP2B; 1H iNα,DQ2α): 0.2007
- STD amplification factor, 2000 (PBP2B; 1H iNα,DQ2α): 5.4
- STD % to SP1 (PBP2B; 1H iNβ): 22.5751%
- STD amplification factor as fraction of highest SP1:PBP5 value (PBP2B; 1H iNβ): 0.2258
- STD amplification factor, 2000 (PBP2B; 1H iNβ): 6.075
